Test results as given in patent US5387602A, “1.5-diphenyl-3-(N-hydroxycarbamoyloxyalkyl)pyrazoles” (Ortho Pharmaceutical Corporation, priority 1993, dated 1995).
pIC50: −log10 of the molar value.

How the values were obtained:
[1] = molecular target: T1, Sheep Seminal Vesicle Cyclooxygenase (Ovis aries, UniProt P05979); assay: Procedure I: sheep seminal vesicle (SSV) cyclooxygenase inhibition; format: biochemical; conditions: for pIC50: SSV CO; for % INHIB. CO (Procedure I): dose 3 MPK unless otherwise stated (so in the source)
T1 construct: purchased Biomol (Plymouth Meeting, Pa.); host or cells: sheep seminal vesicle
T1 sequence (P05979 25-600): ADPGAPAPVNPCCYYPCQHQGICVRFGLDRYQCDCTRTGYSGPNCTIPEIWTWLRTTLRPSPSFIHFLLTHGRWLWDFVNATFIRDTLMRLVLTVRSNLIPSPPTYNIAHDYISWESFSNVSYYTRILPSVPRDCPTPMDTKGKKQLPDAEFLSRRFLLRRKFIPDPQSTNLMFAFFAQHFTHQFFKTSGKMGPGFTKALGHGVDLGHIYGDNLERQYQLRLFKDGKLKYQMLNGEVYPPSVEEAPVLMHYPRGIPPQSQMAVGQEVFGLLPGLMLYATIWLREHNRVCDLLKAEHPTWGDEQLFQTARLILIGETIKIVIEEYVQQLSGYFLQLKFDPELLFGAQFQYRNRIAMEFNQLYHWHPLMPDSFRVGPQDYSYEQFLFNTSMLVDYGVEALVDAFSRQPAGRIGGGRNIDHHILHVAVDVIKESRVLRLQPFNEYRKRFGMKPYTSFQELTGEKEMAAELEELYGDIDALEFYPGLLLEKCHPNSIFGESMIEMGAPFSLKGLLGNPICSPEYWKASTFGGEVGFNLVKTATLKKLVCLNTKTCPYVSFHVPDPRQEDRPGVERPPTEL
Method: Sheep Seminal Vesicle Cyclooxygenase Sheep seminal vesicle (SSV) cyclooxygenase (95% pure, prostaglandin endoperoxide synthase, EC 1.14.99.1 specific activity 24 units/mg protein) obtained as a lyophilized powder from Biomol (Plymouth Meeting, Pa.) was reconstituted at a concentration of 59 mg/mL in Hanks' Balanced Salt Solution (HBSS). The enzyme was divided into 200 μL aliquots, snap frozen with liquid N2, and stored at -70° C. until immediately prior to use. Measurements of CO activity were carried out in polypropylene tubes containing 495 μL of HBSS to which was added 5 μL Of inhibitor or dimethylsulfoxide (DMSO; vehicle control) and 6 μL of SSV CO solution. The tubes were mixed on a vortex shaker, preincubated for 5 min at 37° C. prior to the initiation of the reaction. The reaction was started by the addition of [^14 C]-arachidonic acid (1-^14 C-AA, Amersham, Arlington Heights, Ill.) in 10 μL of methanol. Tubes were again vortexed and incubated in a water bath for 20 minutes after which the tubes were removed and the reaction stopped by acidification with the addition of 1 mL 2M formic acid. Lipophilic products were extracted with 3 mL chloroform and concentrated to dryness under N2. Each pellet was reconstituted with 40 μL of chloroform and spotted on a Whatman Silicon thin-layer chromatography plate and developed in a chromatography tank containing A-9 solvent (11:5:2:1 V:V:V:V, ethyl acetate:trimethyl-pentane:acetic acid:double distilled-H2 O). Radioactive cyclooxygenase products (prostaglandin D2, prostaglandin E2, etc.) were measured using a Bioscan System 200 Imaging Scanner. Inhibition of enzyme activity was calculated by comparing the areas under the curve produced in the presence or absence of test compound. In the following tables, the superscripts indicate the number of experiments and, unless otherwise stated, the dose at which % inhibition is reported is 3 MPK.

[2] = molecular target: T2, RBL-1 Cell Cyclooxygenase (Rattus norvegicus, UniProt Q63921); assay: Procedure II: cyclooxygenase inhibition in disrupted RBL-1 cells (supernatant as enzyme source); format: biochemical; conditions: for pIC50: read-out: IC50 CO (Procedure II)
T2 construct: the supernatant was saved as the source of enzymes; endogenous in cells; host or cells: RBL-1 (rat basophilic leukemia cells), 10,000×g supernatant of homogenate
T2 sequence (Q63921 27-602): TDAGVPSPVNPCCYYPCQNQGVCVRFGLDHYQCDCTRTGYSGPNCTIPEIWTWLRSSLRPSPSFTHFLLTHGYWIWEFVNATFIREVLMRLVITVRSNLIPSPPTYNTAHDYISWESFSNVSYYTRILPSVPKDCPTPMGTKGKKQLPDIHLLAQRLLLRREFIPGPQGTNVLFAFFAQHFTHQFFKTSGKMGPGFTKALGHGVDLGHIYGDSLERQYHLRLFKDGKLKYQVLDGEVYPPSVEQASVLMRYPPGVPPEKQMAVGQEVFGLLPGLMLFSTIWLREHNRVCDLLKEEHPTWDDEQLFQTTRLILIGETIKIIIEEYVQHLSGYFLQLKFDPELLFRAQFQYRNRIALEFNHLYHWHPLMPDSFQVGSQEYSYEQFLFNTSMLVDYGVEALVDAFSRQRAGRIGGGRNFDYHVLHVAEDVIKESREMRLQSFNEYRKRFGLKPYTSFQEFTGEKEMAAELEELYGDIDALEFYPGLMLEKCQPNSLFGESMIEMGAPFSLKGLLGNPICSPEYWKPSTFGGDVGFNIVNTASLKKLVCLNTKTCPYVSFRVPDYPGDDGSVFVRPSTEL
Method: RBL-1 Cell 5-Lipoxygenase and Cyclooxygenase
Rat basophilic leukemia cells (RBL-1; 5×10^7 viable cells/mL) were disrupted by homogenization on ice (four 20 sec bursts) with a Brinkman polytron. Complete cell breakage was verified microscopically. The homogenate was then centrifuged at 10,000×g for 48 minutes at 4° C. The pellet was discarded and the supernatant was saved as the source of enzymes. The supernatant was pre-incubated for five minutes at 37° C. in the presence of 2 mM of CaCl2 and compound or vehicle (1% DMSO). The conversion of AA into 5-LO products was initiated by adding 10 μL (50 μCi) of 1-^14 C-AA to each tube and incubated at 37° C. for 20 minutes. The reaction was stopped by adjusting the pH of each sample to 3 to 3.5 with 2M formic acid. Samples were extracted with three volumes of chloroform to isolate the products of 5-LO formed during the reaction. Fractions were dried under nitrogen, then resuspended in 40 μL of chloroform and spotted onto silica gel HL plates. The plates were developed in A-9 solvent. The dried plates were analyzed using a Bioscan Imaging TLC scanner to determine the percentage of radiolabelled AA converted to 5-HETE in each sample.
In the following tables, the superscripts indicate the number of experiments and, unless otherwise stated, the dose at which % inhibition is reported is 3 MPK.

COc1ccc(-n2nc(COC(=O)NO)cc2-c2ccc(Cl)cc2)cc1 [1-A]
pIC50 [1]: 5.65 | % INHIB. CO (Procedure I) [1]: 43% | % INHIBITION CO (Procedure II) [2]: 34% | pIC50 [2]: 6.74

COc1ccc(-n2nc(COC(=O)N(C)O)cc2-c2ccc(Cl)cc2)cc1 [1-B]
pIC50 [1]: 6.14 | % INHIB. CO (Procedure I) [1]: 100% | % INHIBITION CO (Procedure II) [2]: 52% | pIC50 [2]: 5.85

COc1ccc(-n2nc(COC(=O)N(O)C(C)C)cc2-c2ccc(Cl)cc2)cc1 [1-C]
pIC50 [1]: 6.28 | % INHIB. CO (Procedure I) [1]: 92% | % INHIBITION CO (Procedure II) [2]: 80% | pIC50 [2]: 5.96

COc1ccc(-n2nc(COC(=O)NO)c(Br)c2-c2ccc(Cl)cc2)cc1 [1-D]
pIC50 [1]: 5.51 | % INHIB. CO (Procedure I) [1]: 43% | % INHIBITION CO (Procedure II) [2]: 36% | pIC50 [2]: 6.52

COc1ccc(-n2nc(COC(=O)N(C)O)c(Br)c2-c2ccc(Cl)cc2)cc1 [1-E]
pIC50 [1]: 6.13 | % INHIB. CO (Procedure I) [1]: 100% | % INHIBITION CO (Procedure II) [2]: 43% | pIC50 [2]: 6.77

COc1ccc(-n2nc(COC(=O)N(O)C(C)C)c(Br)c2-c2ccc(Cl)cc2)cc1 [1-F]
% INHIB. CO (Procedure I) [1]: 44% | % INHIBITION CO (Procedure II) [2]: 0% | pIC50 [2]: 6.06

COc1ccc(-n2nc(COC(=O)NO)c(Cl)c2-c2ccc(Cl)cc2)cc1 [1-G]
% INHIB. CO (Procedure I) [1]: 28% | % INHIBITION CO (Procedure II) [2]: 18% | pIC50 [2]: 6.02

COc1ccc(-n2nc(COC(=O)N(C)O)c(Cl)c2-c2ccc(Cl)cc2)cc1 [1-H]
pIC50 [1]: 5.94 | % INHIB. CO (Procedure I) [1]: 100% | % INHIBITION CO (Procedure II) [2]: 41% | pIC50 [2]: 6.66

COc1ccc(-n2nc(COC(=O)N(O)C(C)C)c(Cl)c2-c2ccc(Cl)cc2)cc1 [1-I]
pIC50 [1]: 5.28 | % INHIB. CO (Procedure I) [1]: 18% | % INHIBITION CO (Procedure II) [2]: 3% | pIC50 [2]: 5.79

COc1ccc(-n2nc(COC(=O)NO)cc2-c2ccc(C)cc2)cc1 [1-J]
pIC50 [1]: 6.14 | % INHIB. CO (Procedure I) [1]: 73% | % INHIBITION CO (Procedure II) [2]: 87% | pIC50 [2]: 6.74

COc1ccc(-n2nc(COC(=O)N(C)O)cc2-c2ccc(C)cc2)cc1 [1-K]
pIC50 [1]: 6.29 | % INHIB. CO (Procedure I) [1]: 100% | % INHIBITION CO (Procedure II) [2]: 100% | pIC50 [2]: 6.82

COc1ccc(-n2nc(COC(=O)N(O)C(C)C)cc2-c2ccc(C)cc2)cc1 [1-L]
pIC50 [1]: 6.38 | % INHIB. CO (Procedure I) [1]: 100% | % INHIBITION CO (Procedure II) [2]: 64% | pIC50 [2]: 5.77

COc1ccc(-n2nc(COC(=O)NO)c(Br)c2-c2ccc(C)cc2)cc1 [1-M]
pIC50 [1]: 5.64 | % INHIB. CO (Procedure I) [1]: 75% | % INHIBITION CO (Procedure II) [2]: 85% | pIC50 [2]: 5.84

COc1ccc(-n2nc(COC(=O)N(C)O)c(Br)c2-c2ccc(C)cc2)cc1 [1-N]
pIC50 [1]: 6.05 | % INHIB. CO (Procedure I) [1]: 100% | % INHIBITION CO (Procedure II) [2]: 100% | pIC50 [2]: 5.94

COc1ccc(-n2nc(COC(=O)N(O)C(C)C)c(Br)c2-c2ccc(C)cc2)cc1 [1-O]
pIC50 [1]: 5.58 | % INHIB. CO (Procedure I) [1]: 59% | % INHIBITION CO (Procedure II) [2]: 82% | pIC50 [2]: 5.51

COc1ccc(-n2nc(COC(=O)NO)c(Cl)c2-c2ccc(C)cc2)cc1 [1-P]
pIC50 [1]: 5.30 | % INHIB. CO (Procedure I) [1]: 52% | % INHIBITION CO (Procedure II) [2]: 0% | pIC50 [2]: 5.96

COc1ccc(-n2nc(COC(=O)N(C)O)c(Cl)c2-c2ccc(C)cc2)cc1 [1-Q]
pIC50 [1]: 5.67 | % INHIB. CO (Procedure I) [1]: 93% | % INHIBITION CO (Procedure II) [2]: 82% | pIC50 [2]: 6.68

COc1ccc(-n2nc(COC(=O)N(O)C(C)C)c(Cl)c2-c2ccc(C)cc2)cc1 [1-R]
% INHIB. CO (Procedure I) [1]: 11% | % INHIBITION CO (Procedure II) [2]: 8% | pIC50 [2]: 5.42

COc1ccc(-n2nc(CCOC(=O)N(C)O)cc2-c2ccc(Cl)cc2)cc1 [2-A]
pIC50 [1]: 5.70 | % INHIB. CO (Procedure I) [1]: 100% | % INHIBITION CO (Procedure II) [2]: 44% | pIC50 [2]: 5.71

COc1ccc(-n2nc(CCOC(=O)N(O)C(C)C)cc2-c2ccc(Cl)cc2)cc1 [2-B]
pIC50 [1]: 6.02 | % INHIB. CO (Procedure I) [1]: 100% | % INHIBITION CO (Procedure II) [2]: 55% | pIC50 [2]: 6.30

COc1ccc(-n2nc(CCOC(=O)N(C)O)c(Cl)c2-c2ccc(Cl)cc2)cc1 [2-C]
pIC50 [1]: 5.73 | % INHIB. CO (Procedure I) [1]: 100% | % INHIBITION CO (Procedure II) [2]: 41% | pIC50 [2]: 5.57

COc1ccc(-n2nc(CCOC(=O)N(O)C(C)C)c(Cl)c2-c2ccc(Cl)cc2)cc1 [2-D]
pIC50 [1]: 6.54 | % INHIB. CO (Procedure I) [1]: 63% | % INHIBITION CO (Procedure II) [2]: 1.5% | pIC50 [2]: 6.60

COc1ccc(-n2nc(CCOC(=O)N(C)O)c(Br)c2-c2ccc(Cl)cc2)cc1 [2-E]
pIC50 [1]: 5.71 | % INHIB. CO (Procedure I) [1]: 37% | % INHIBITION CO (Procedure II) [2]: 5.5% | pIC50 [2]: 5.57

COc1ccc(-n2nc(CCOC(=O)N(O)C(C)C)c(Br)c2-c2ccc(Cl)cc2)cc1 [2-F]
pIC50 [1]: 6.32 | % INHIB. CO (Procedure I) [1]: 58% | % INHIBITION CO (Procedure II) [2]: 4% | pIC50 [2]: 6.39
